Source: patent US20240182525A1, “NOVEL BICYCLIC COMPOUND, OPTICAL ISOMER THEREOF OR PHARMACEUTICALLY ACCEPTABLE SALT THEREOF, USE THEREOF, AND PREPARATION METHOD THEREFOR” (KOREARESEARCH INSTITUTE OF BIOSCIENCE AND BIOTECHNOLOGY, priority 2021, published 2024)

Columns and labels:
[1] = Cytotoxicity assay, B16F10; format: cell-based; details: mouse, B16F10 cells (malignant melanoma); B16F10, 48 hours, maximum concentration 100 μM
Procedure: (§1) To measure the cytotoxicity of the compound represented by Chemical Formula 1 (Chemical Formula 1-1), toxicity was measured in mouse preadipocyte 3T3-L1 cell line, human malignant melanoma A375 cell line, mouse malignant melanoma B16F10 cell line, human oral cancer MDA-MB-435 cell line, mouse breast cancer 4T1 cell line, human breast cancer MCF7 cell line, human brain cancer U87MG cell line, human glioblastoma U373MG cell line, human cervical cancer HeLa cell line, mouse embryonic fibroblast (MEF) cell line, human embryonic kidney HEK293T cell line (Korea Cell Line Bank). First, 1×10^4 cells were divided into 200 μl each in a 96-well plate using Dulbecco's Modified Eagle's Medium (DMEM) supplemented with 10% fetal bovine serum (FBS), […] streptomycin, and 50 U/ml penicillin, while maintaining various cells at 37r in an atmosphere of 5% CO2. The cells were treated with the compound of Chemical Formula 1-1 of the present invention at a maximum concentration of 100 μM and cultured for 48 hours under the same culture conditions. After the incubation, the culture media were removed and the cytotoxicity test results were confirmed (Table 2 and FIG. 3 below).

[2] = Cytotoxicity assay, HEK293T; format: cell-based; details: human, HEK293T cells (embryonic kidney), maximum concentration 100 μM
Procedure: as §1

mouse 3T3-L1 cell line = experiment: Adipogenesis inhibitory effect test, Oil Red O staining; format: cell-based
Procedure: The adipogenesis inhibitory activity of Chemical Formula 1 according to the present invention was measured through Oil Red O staining in mouse 3T3-L1 cell line. First, 3T3-L1 cells were placed in a 48-well plate (1×10^4 cell/well) and cultured for 24 hours in a 37° C. CO2 incubator. The next day, the cells were replaced with the normal culture media (Undifferentiated media; UND) and the differentiation induction medium (Differentiation media; DM), respectively, followed by treatment with 2.5-10 μM of Chemical Formula 1-1 for 48 hours. Then, the cells were replaced with the normal culture media (Maintainment media; MM), and cultured with 2.5-10 μM of Chemical Formula 1-1 for 72 hours, and then treated with Oil Red O.
In addition, the same experiment was conducted with the compound of Chemical Formula 1-1 at a fixed concentration of 7.5 μM and Wnt3a-conditional media at 10-2.5%.

Cytotoxicity assay, A375 = format: cell-based; details: human, A375 cells (malignant melanoma); A375, 48 hours, maximum concentration 100 μM
Procedure: as §1

3T3-L1 cells = experiment: Cytotoxicity in 3T3-L1 cells in L-conditional or Wnt3a-containing culture media; format: cell-based, mouse; details: 2.5 to 10 μM, Wnt3a-containing culture media (2.5%), FIG. 3
Procedure: Next, in order to confirm the cytotoxicity in the Chemical Formula 1-1 and wnt3 culture, toxicity in 3T3-L1 cells was measured on the compound of Chemical Formula 1-1 of the present invention at a concentration of 2.5 to 10 μM in L-conditional media or Wnt3a-containing culture media (2.5%).

[3] = tested on: β, a Wnt3a signaling protein; experiment: Western blotting of Wnt3a signaling protein in 3T3-L1; format: cell-based, mouse; details: 7.5 μM, 3T3-L1, western blotting, FIGS. 6 and 7
Procedure: To confirm the Wnt3a signaling of Chemical Formula 1-1, the protein level of β, a Wnt3a signaling protein, was measured in the 3T3-L1 cell line. The 3T3-L1 cells were cultured in a 6-well plate (2×10^5 cell/well), and the next day, the cells were replaced with normal culture media (Undifferentiated media; UND) and differentiation induction media (Differentiation media; DM), respectively, followed by treatment with the compound of Chemical Formula 1-1 at 7.5 μM for 48 hours, and then the cells were replaced with new normal culture media (Maintaining media; MM). Here, the compound of Chemical Formula 1-1 at a concentration of 7.5 μM was cultured for 72 hours, followed by western blotting. In FIGS. 6 and 7, it was confirmed that the protein level of β increased in the treatment of the compound of Chemical Formula 1-1 alone and the treatment of Chemical Formula 1-1 and Wnt3a together.

MC3T3-E1 cells = experiment: ALP activity analysis in MC3T3-E1 cell lysate; format: cell-based, mouse; details: 5, 10, and 20 νM, 7 days, absorbance 405 nm, FIG. 16
Procedure: In order to analyze the effect of the compound of Chemical Formula 1 according to the present invention on ALP activity, MC3T3-E1 cells, which are mouse osteoblasts, were inoculated into a 96-well plate at a concentration of 5×10^3 cell/well, and incubated overnight in growth media containing alpha-minimum essential media (alpha-MEM, JBI #008-53) supplemented with 10% fetal bovine serum (FBS, Gibco #16000, USA) and 1× antibiotics (Gibco #15240062, USA). As a negative control, an alpha minimum essential medium containing 10% FBS was used. As a positive control, 100 μg/ml of ALP-activating ascorbic acid and 10 mM of β-glycerophosphate were mixed, and the positive control was exchanged with media added with 5, 10, and 20 νM of Chemical Formula 1-1 (6-J) on Day 3, and treated for 7 days. After 7 days, the media were removed and the cells were washed with PBS, and the cultured MC3T3-E1 cells were lysed with 0.1% TritonX-100 (in PBS) solution and centrifuged to obtain only the supernatant. A predetermined amount of supernatant and ALP were added and reacted for 30 minutes, and then the absorbance was confirmed at 405 nm.

[4] = Cytotoxicity assay, U87MG; format: cell-based; details: human, U87MG cells (brain cancer), maximum concentration 100 μM
Procedure: as §1

[5] = tested on: adipogenesis-associated genes (3T3-L1 cells); experiment: Q-PCR of adipogenesis-associated genes; format: cell-based, mouse; details: FIG. 11
Description: In addition, real-time polymerase chain reaction (Q-PCR) was used to confirm the expression of adipogenesis-associated genes. As a result, it was confirmed that the amount of adipogenesis induction-associated mRNA was reduced when treated with the compound of Chemical Formula 1 according to the present invention (FIG. 11).

CC(C)CC1NC(=O)C2CCCN2C(=O)C(C(O)C(C)C)NC(=O)CNC(=O)C(C(C)O)NC(=O)C2NC(=O)C(NC(=O)/C=C/c3ccccc3C(O)C(C)O)C(C)OC(=O)C(CC(N)=O)NC(=O)C(NC(=O)C(O)NC1=O)C(O)c1ccc(O)c(c1)Oc1ccc2cc1 (centres unmarked) [Chemical Formula 1-1]
IC50 at 48 h [1]: > 100 µM
IC50 at 48 h [2]: > 100 µM
adipogenesis inhibitory activity (mouse 3T3-L1 cell line; 2.5-10 μM, Oil Red O, FIG. 8): exhibited the adipogenesis inhibitory activity in a concentration-dependent manner
adipogenesis inhibitory activity (mouse 3T3-L1 cell line; fixed 7.5 μM with Wnt3a-conditional media at 10-2.5%, FIG. 9): excellent
IC50 at 48 h (Cytotoxicity assay, A375): > 100 µM
cytotoxicity (3T3-L1 cells): cytotoxicity was not observed
protein level of β ([3]; compound alone): increased
protein level of β ([3]; together with Wnt3a): increased
ALP activity (MC3T3-E1 cells): increased
IC50 at 48 h [4]: > 100 µM
amount of adipogenesis induction-associated mRNA [5]: reduced
